How the values were obtained:
[1] = saturated aqueous solution, 20° C.; cited from earlier work
[2] = oral dietary supplement; cited from earlier work
[3] = Storage stability of the powders; format: physicochemical; conditions: shelf life
[4] = Solubility in water / saturated aqueous solution
Excerpt: The term “soluble” as used herein means capable of being dissolved, going into a liquid state from a solid state.

Compound	bioavailability / absorption of calcium (in words) [2]	further results
d-gluconic acid calcium salt [Calcium gluconate]		pH of saturated solution [1]: 6-7
O.O.O.O.O=C([O-])CC(O)(CC(=O)[O-])C(=O)[O-].O=C([O-])CC(O)(CC(=O)[O-])C(=O)[O-].[Ca+2].[Ca+2].[Ca+2] [Calcium citrate tetrahydrate]	better absorbed than the carbonate or phosphates of calcium	
magnesium 3-hydroxy-3-methylbutyrate [MgHMB]		stability of the powder (in words) [3]: stable powders with long shelf lives; concentration of saturated aqueous solution ([4]; 20° C.): 32 % by weight; solubility over pH range (in words) ([4]; broad range of pH values): highly soluble; pH of aqueous solution (in words) ([4]; pure salt dissolved in water): nearly neutral or slightly alkaline
O=P([O-])([O-])[O-].O=P([O-])([O-])[O-].[Ca+2].[Ca+2].[Ca+2] [tribasic calcium phosphate]	poor	
O.O.O=P([O-])([O-])O.[Ca+2] [dibasic calcium phosphate dihydrate]	poor	
O=C([O-])[O-].[Ca+2] [Calcium carbonate]	relatively poor	
CC(O)C(=O)[O-].CC(O)C(=O)[O-].O.O.O.O.O.[Ca+2] (stereo not shown) [calcium lactate pentahydrate, 2-hydroxypropanoic acid calcium salt pentahydrate]	good	
